# Measured values taken from DBAASP.
# Legend:
# Assay in all cases: ≥ marks a high value that may be exact or a test limit, other limits are often not marked, values filed in µg/mL are converted to µM
# [1] = system: Klebsiella pneumoniae ATCC 700603
# [2] = system: Escherichia coli ATCC 25922
# [3] = system: Salmonella enterica subsp. enterica serovar Enteritidis ATCC 13076
# [4] = system: Bacillus cereus ATCC 11778
# [5] = system: Staphylococcus aureus ATCC 29213
# [6] = system: Streptococcus pyogenes ATCC 19615
# [7] = system: Pseudomonas aeruginosa ATCC 27853
# [8] = system: Serratia marcescens ATCC 21202
# Vibrio cholerae PL91 = system: Vibrio cholerae PL91
# [9] = system: Bacillus cereus NCLM 2156
# [10] = system: Staphylococcus aureus ATCC 25923
# [11] = system: Escherichia coli NCLM 2064
# [12] = system: Pseudomonas aeruginosa ATCC 10145
# [13] = system: Staphylococcus aureus RN4220
# [14] = system: Staphylococcus aureus ATCC 6538
# [15] = system: Campylobacter jejuni NCTC 11161
# Escherichia coli K-12 = system: Escherichia coli K-12
# [16] = system: Pseudomonas aeruginosa Q12-0535
# [17] = system: Pseudomonas aeruginosa Q14-0890
# [18] = system: Enterococcus faecalis JH-2-2
# [19] = system: Salmonella typhimurium SL1344
# [20] = system: Pseudomonas aeruginosa Q14-0208
# [21] = system: Pseudomonas aeruginosa PAO1
# [22] = system: Klebsiella pneumoniae NCTC 13442
# [23] = system: Listeria monocytogenes NCTC 11994
# [24] = system: Acinetobacter baumannii ATCC 19606
# [25] = system: Staphylococcus aureus NCTC 12493
# [26] = system: Acinetobacter baumannii Q13-0717
# Escherichia coli = system: Escherichia coli
# [27] = system: Campylobacter jejuni ATCC 33292
# [28] = system: Klebsiella pneumoniae Q14-0285
# [29] = system: Campylobacter jejuni NCTC 11351
# [30] = system: Staphylococcus aureus USA 300
# [31] = system: Klebsiella pneumoniae Q14-0095
# [32] = system: Staphylococcus aureus MRSA-15
# Campylobacter jejuni = system: Campylobacter jejuni
# [33] = system: Staphylococcus aureus ATCC 33591
# Klebsiella pneumoniae = system: Klebsiella pneumoniae
# Enterobacter cloacae = system: Enterobacter cloacae
# Streptococcus pneumoniae = system: Streptococcus pneumoniae
# [34] = system: Acinetobacter baumannii ATCC 15308
# Staphylococcus aureus = system: Staphylococcus aureus
# [35] = system: Pseudomonas aeruginosa ATCC 15442
# Citrobacter sp. = system: Citrobacter sp.
smiles,measurement,setting,value
CC(C)C[C@H](NC(=O)[C@H](CC(C)C)NC(=O)[C@H](CC(=O)O)NC(=O)[C@H](CC(N)=O)NC(=O)[C@H](CC(C)C)NC(=O)[C@H](CC(C)C)NC(=O)[C@H](CC(N)=O)NC(=O)CNC(=O)[C@@H](NC(=O)[C@H](CC(C)C)NC(=O)[C@@H]1CCCN1C(=O)[C@H](CC(C)C)NC(=O)[C@@H](N)C(C)C)C(C)C)C(=O)NCC(=O)N[C@@H](CCCCN)C(=O)O [VLPLVGNLLNDLLGK],MIC,[1],> 63.4 µM
same,MIC,[2],> 63.4 µM
same,MIC,[3],≥ 63.4 µM
same,MIC,[4],≥ 63.4 µM
same,MIC,[5],> 63.4 µM
same,MIC,[6],≥ 63.4 µM
same,MIC,[7],> 63.4 µM
same,MIC,[8],≥ 63.4 µM
CC[C@H](C)[C@H](NC(=O)CN)C(=O)NCC(=O)N[C@@H](CO)C(=O)N[C@@H](CCSC)C(=O)N[C@@H](CC(C)C)C(=O)N[C@@H](CC(C)C)C(=O)NCC(=O)N[C@@H](CC(C)C)C(=O)N[C@@H](C)C(=O)N[C@@H](CCCCN)C(=O)N[C@@H](CC(N)=O)C(=O)N[C@H](C(=O)NCC(=O)N[C@@H](CCSC)C(=O)N[C@@H](CO)C(=O)N[C@@H](CC(C)C)C(=O)N[C@@H](CC(C)C)C(=O)N[C@@H](CC(N)=O)C(=O)N[C@@H](CCCCN)C(=O)N[C@@H](C)C(=O)N[C@@H](CCC(N)=O)C(=O)N[C@H]1CSSC[C@@H](C(=O)O)NC(=O)[C@H](CCCCN)NC(=O)CNC(=O)[C@H](CO)NC(=O)[C@H]([C@@H](C)CC)NC(=O)[C@H](CCCCN)NC1=O)C(C)C [GIGSMLLGLAKNVGMSLLNKAQCKISGKC],MIC,Vibrio cholerae PL91,≥ 51.1 µM
same,MIC,[9],≥ 51.1 µM
same,MIC,[10],> 51.1 µM
same,MIC,[11],13.6 µM
same,MIC,[12],≥ 34.1 µM
CC[C@H](C)[C@H](NC(=O)[C@H](CCCCN)NC(=O)[C@H](CO)NC(=O)[C@H](Cc1c[nH]c2ccccc12)NC(=O)[C@H](CCCN=C(N)N)NC(=O)[C@H](CC(N)=O)NC(=O)[C@H](CCCN=C(N)N)NC(=O)[C@H](CCCN=C(N)N)NC(=O)[C@@H]1CCCN1C(=O)[C@@H](N)CC(C)C)C(=O)N[C@@H](Cc1c[nH]c2ccccc12)C(=O)N[C@@H](CCCCN)C(=O)N[C@@H](CCCCN)C(=O)N[C@H](C(=O)N[C@H](C(=O)N[C@H](C(=O)N[C@H](C(=O)N[C@@H](Cc1ccccc1)C(=O)N[C@@H](CO)C(=O)O)C(C)C)[C@@H](C)O)C(C)C)C(C)C [LPRRNRWSKIWKKVVTVFS],MIC,[1],6.66 µM
same,MIC,[13],13.3 µM
same,MIC,[14],13.3 µM
same,MIC,[15],1.67 µM
same,MIC,Escherichia coli K-12,13.3 µM
same,MIC,[16],26.7 µM
same,MIC,[17],13.3 µM
same,MIC,[18],13.3 µM
same,MIC,[19],13.3 µM
same,MIC,[20],6.66 µM
same,MIC,[21],13.3 µM
same,MIC,[22],6.66 µM
same,MIC,[23],13.3 µM
same,MIC,[24],9.42 µM
same,MIC,[25],6.66 µM
same,MIC,[26],1.67 µM
same,MIC,Escherichia coli,26.7 µM
same,MIC,[27],1.67 µM
same,MIC,[28],6.66 µM
same,MIC,[29],26.7 µM
same,MIC,[7],26.7 µM
same,MIC,[30],3.33 µM
same,MIC,[31],13.3 µM
same,MIC,[32],13.3 µM
same,MIC,Campylobacter jejuni,26.7 µM
same,MIC,[33],6.66 µM
CC[C@H](C)[C@H](NC(=O)[C@H](CC(C)C)NC(=O)CNC(=O)CNC(=O)[C@H](CC(C)C)NC(=O)[C@@H](N)Cc1ccccc1)C(=O)N[C@@H](CCCCN)C(=O)N1CCC[C@H]1C(=O)N[C@@H](Cc1c[nH]c2ccccc12)C(=O)N[C@@H](Cc1c[nH]c2ccccc12)C(=O)N1CCC[C@H]1C(=O)N[C@@H](Cc1c[nH]c2ccccc12)C(=O)N[C@@H](CCCN=C(N)N)C(=O)N[C@@H](CCCN=C(N)N)C(N)=O [FLGGLIKPWWPWRR],MIC,[2],17.2 µM
same,MIC,Klebsiella pneumoniae,> 138 µM
same,MIC,Enterobacter cloacae,≥ 138 µM
same,MIC,[10],17.2 µM
same,MIC,Streptococcus pneumoniae,17.2 µM
same,MIC,[34],≥ 69 µM
same,MIC,Staphylococcus aureus,17.2 µM
same,MIC,[35],≥ 34.5 µM
same,MIC,Citrobacter sp.,≥ 138 µM
